Here are results for 13 compounds from ChEMBL document CHEMBL1130331, “Synthesis and hepatoprotective effects of soyasapogenol B derivatives” (1997).

In the first assay the test system is HepG2. As to the kind of experiment: Tested in vitro for hepatoprotective effect of 10 ug/ml of compound on cell growth and lesions in Hep G2 cells treated with aflatoxin B1 (10 e -5 M). The class given is functional, Homo sapiens.
Compound `CC1(C)C[C@@H](O)[C@]2(C)CC[C@]3(C)C(=CCC4[C@@]5(C)CC[C@H](O)[C@](C)(CO)C5CC[C@]43C)[C@@H]2C1` (stereo partly drawn) gave a Protection of 14%.
Same read-out and setting: the figure for `COC[C@]1(C)C2CC[C@]3(C)C(CC=C4[C@@H]5CC(C)(C)C[C@@H](O)[C@]5(C)CC[C@]43C)[C@@]2(C)CC[C@@H]1O` (stereo partly drawn) is 48%; for `CO[C@H]1CC[C@@]2(C)C(CC[C@]3(C)C2CC=C2[C@@H]4CC(C)(C)C[C@@H](O)[C@]4(C)CC[C@]23C)[C@@]1(C)CO` (stereo partly drawn) it is 2%.
`CC1(C)C[C@@H](O)[C@]2(C)CC[C@]3(C)C(=CCC4[C@@]5(C)CC[C@H](O)[C@](C)(C=O)C5CC[C@]43C)[C@@H]2C1` (stereo partly drawn): the Protection stood at 32%.
`CC(=O)OC[C@]1(C)C2CC[C@]3(C)C(CC=C4[C@@H]5CC(C)(C)C[C@@H](O)[C@]5(C)CC[C@]43C)[C@@]2(C)CC[C@@H]1O` (stereo partly drawn) yielded a Protection of 45%.
Take `CO[C@@H]1CC(C)(C)C[C@H]2C3=CCC4[C@@]5(C)CC[C@H](O)[C@](C)(CO)C5CC[C@@]4(C)[C@]3(C)CC[C@@]12C` (stereo partly drawn): the Protection was 9%.
The compound `CC1(C)C[C@@H](O)[C@]2(C)CC[C@]3(C)C(=CCC4[C@@]5(C)CCC[C@](C)(CO)C5CC[C@]43C)[C@@H]2C1` (stereo partly drawn) registered a Protection of 0%.
`CC1(C)C[C@@H](O)[C@]2(C)CC[C@]3(C)C(=CCC4[C@@]5(C)CC[C@H](O)[C@](C)(C(=O)O)C5CC[C@]43C)[C@@H]2C1` (stereo partly drawn) registered a Protection of 44%.
For `CC1(C)C[C@@H](O)[C@]2(C)CC[C@]3(C)C(=CCC4[C@@]5(C)CC[C@H](O)C(C)(C)C5CC[C@]43C)[C@@H]2C1` (stereo partly drawn), the Protection stood at 19%.
`CC1(C)CC[C@]2(C)CC[C@]3(C)C(=CCC4[C@@]5(C)CC[C@H](O)[C@](C)(CO)C5CC[C@]43C)[C@@H]2C1` (stereo partly drawn) registered a Protection of 33%.
`CC(=O)O[C@@H]1CC(C)(C)C[C@H]2C3=CCC4[C@@]5(C)CC[C@H](O)[C@](C)(CO)C5CC[C@@]4(C)[C@]3(C)CC[C@@]12C` (stereo partly drawn) displayed a Protection of 11%.
In turn, `CC(=O)O[C@H]1CC[C@@]2(C)C(CC[C@]3(C)C2CC=C2[C@@H]4CC(C)(C)C[C@@H](O)[C@]4(C)CC[C@]23C)[C@@]1(C)CO` (stereo partly drawn) yielded a Protection of 0%.

The subject of a further assay is HepG2. As to the kind of experiment: Tested in vitro for hepatoprotective effect of 20 ug/ml of compound on cell growth and lesions in Hep G2 cells treated with aflatoxin B1 (10 e -5 M). The class given is functional, Homo sapiens.
Compound `CC1(C)[C@@H](O[C@H]2O[C@H](C(=O)O)[C@@H](O)[C@H](O)[C@H]2O[C@@H]2O[C@H](C(=O)O)[C@@H](O)[C@H](O)[C@H]2O)CC[C@]2(C)[C@H]3C(=O)C=C4[C@@H]5C[C@@](C)(C(=O)O)CC[C@]5(C)CC[C@@]4(C)[C@]3(C)CC[C@@H]12` [GLYCYRRHIZIN] returned a Protection of 15%.
